Measured values from US8530452B2, “Tricyclic boron compounds for antimicrobial therapy” (Micurx Pharmaceuticals, Inc., priority 2011, dated 2013).
Where two headings read alike, the source gives them in different places.

Experiments:
[1] = test system: P. aeruginosa; test: MIC determination, antibacterial activity in vitro; format: cell-based, Pseudomonas aeruginosa; details: for MIC: Pseudomonas aeruginosa, read-out: MIC against P. aeruginosa; for reduced potency / loss of activity vs. P. aeruginosa compared to Example 7: MIC ratio vs Example 7
Text: (§1) The in vitro activity of compounds provided herein may be assessed by standard testing procedures such as the determination of minimum inhibitory concentration (MIC) as described in Approved Standard. Methods for Dilution Antimicrobial Susceptibility Tests for Bacteria that Grow Aerobically, 3rd ed., 1993, published by the National Committee for Clinical Laboratory standards, Villanova, Pa., USA. Low MIC values indicate high antibacterial activity, while high MIC values reveal a reduced antibacterial activity (with higher drug concentration required for pathogen eradication in the latter instance).

[2] = test system: P. aeruginosa; test: P. aeruginosa neutropenic mouse thigh infection model; format: in vivo; details: for CFU reduction / CFU reduction, fold: side-by-side test Example 1 vs Example 10, dose not given; for reduction in the bacterial colony-forming units (CFU) / reduction in the bacterial colony-forming units (CFU), fold: 30 mg/kg
Description: To establish the efficacy of the compounds provided herein in vivo, testing in a P. aeruginosa neutropenic mouse thigh infection model was performed with subcutaneous administration of test compounds analogously to the method described by Andes et al. in Antimicrobial Agents and Chemotherapy, 2002, 46(11), 3484-3489. In this model, a greater reduction in the bacterial colony-forming units (CFU) indicates more beneficial therapeutic effect (more bacterial eradication), while a lower CFU reduction indicates a lower effect (less bacterial eradication). The in vivo antibacterial effect is also referred to as efficacy, in contrast to the term potency commonly used for in vitro activity (expressed as MIC).

[3] = rat PK model of intravenous administration; format: in vivo; details: for AUC: in vivo
Text: To further elucidate therapeutic potential of drug compounds, pharmacokinetic (PK) data is used to establish the key parameters predictive of the therapy outcome, such as area under the curve (AUC) for a plot monitoring the change in the systemic drug concentration over time. Thus, a higher AUC value indicates a greater exposure to the drug, commonly associated with a greater therapeutic potential due to a higher amount of drug available to combat the infection in a mammal. In contrast, a lower AUC value indicates a reduced exposure to the drug under study, resulting in a reduced amount of antibiotic available to combat bacterial infestations. To that end, the compounds provided herein have been tested in the rat PK model of intravenous administration performed analogously to methods described in the monograph Current Protocols in Pharmacology, 2005, 7.1.1-7.1.26, John Wiley & Sons, Inc.

[4] = test system: A. baumannii; test: MIC determination, antibacterial activity in vitro; format: cell-based, Acinetobacter baumannii; details: for reduced potency / loss of activity vs. A. baumannii compared to Example 7: MIC ratio vs Example 7; for MIC: Acinetobacter baumannii, Strain A. baumannii MABA0001, read-out: MIC, A. baumannii (footnote b)
Text: as §1

[5] = test system: K. pneumoniae; test: MIC determination, antibacterial activity in vitro; format: cell-based, Klebsiela pneumoniae; details: for MIC: Klebsiella pneumoniae, Strain K. pneumoniae KPN1004, read-out: MIC, K. pneumoniae (footnote c)
Text: as §1

[6] = test system: E. coli; test: MIC determination, antibacterial activity in vitro; format: cell-based, Escherichia coli; details: MIC ratio vs Example 24
Text: as §1

[7] = test system: Gram-negative pathogens; test: Antibacterial activity against Gram-negative pathogens in vitro (overall statements); format: cell-based; details: Table 1 pathogens overall
Text: as §1

[8] = intravenous, dose not given, Example 1 vs Example 10, read-out: AUC
[9] = subcutaneous, side-by-side test Example 3 vs Example 24
[10] = another test, side-by-side Example 3 vs Example 25
[11] = intravenous, 10 mg/kg, read-out: exposure (AUC)

For `Cl.NCC1OB(O)c2c(OCCCO)cccc21` (stereo not drawn) [Reference Example 10, 3-(Aminomethyl)-7-(3-hydroxypropoxy)benzo[c][1,2]oxaborol-1(3H)-ol hydrochloride, reference compound], the MIC [1] was 8 µg/mL, the CFU reduction [2] was “about 1.3 log” and the “CFU reduction, fold” value [2] was “about 20 fold”. It also gave an AUC [3, 8] of roughly 5370 ng·h/mL.

With `CC1(CO)COc2cccc3c2B(OC3CN)O1.Cl` (stereo not drawn) [Example 13, (2-(Aminomethyl)-8-methyl-7,8-dihydro-2H-1,6,9-trioxa-9a-borabenzo[cd]azulen-8-yl)methanol hydrochloride] the “reduced potency / loss of activity vs. A. baumannii compared to Example 7” value [4] was “about 4 fold”.

For `Cl.NC[C@H]1OB2O[C@H](CO)COc3cccc1c32` [Example 3, ((2S,8R)-2-(Aminomethyl)-7,8-dihydro-2H-1,6,9-trioxa-9a-borabenzo[cd]azulen-8-yl)methanol hydrochloride], the “improved activity against K. pneumoniae as compared to reference compound of Example 24” value ([5]; MIC ratio vs Example 24) was 2 fold, the “improved activity against P. aeruginosa as compared to reference compound of Example 24” value ([1]; MIC ratio vs Example 24) was 2 fold and the MIC [1] was 2 to 4 µg/mL. For the same compound, the “higher degree of pathogen reduction compared to reference compound of Example 24” value ([2]; 30 mg/kg both agents) was “over 80 fold”, the “more efficient in thigh infection model compared to reference compound of Example 25” value ([2]; 30 mg/kg both agents) was “about 12 fold” and the “reduction in the bacterial colony-forming units (CFU)” value [2, 9] was “about 3.6 log”. For the same compound, the “reduction in the bacterial colony-forming units (CFU), fold” value (shortened to “reduction … (CFU), fold”) [2, 9] was “about 3981 fold”, the “reduction in the bacterial colony-forming units (CFU)” value [2, 10] was “about 3.44 log” and the “reduction … (CFU), fold” value [2, 10] was “about 2754 fold”. For the same compound, the AUC [3, 11] was roughly 14100 ng·h/mL, the “improvement in exposure (AUC) over reference compound of Example 24” value ([3]; intravenous, 10 mg/kg) was 2.7 fold and the “improvement in exposure (AUC) over reference compound of Example 25” value ([3]; intravenous, 10 mg/kg) was “over 2 fold”. For the same compound, the “improved activity against E. coli as compared to reference compound of Example 24” value [6] was 2 fold.

`Cl.NCC1OB2O[C@@H](CO)COc3cccc1c32` (stereo partly drawn) [Example 4, ((8S)-2-(Aminomethyl)-7,8-dihydro-2H-1,6,9-trioxa-9a-borabenzo[cd]azulen-8-yl)methanol hydrochloride] showed an MIC [5] of 2000 µg/mL, an MIC [1] of 2 to 4 µg/mL and an MIC [4] of 4000 µg/mL.

For `Cl.NC[C@H]1OB2O[C@H](CO)COc3c(F)ccc1c32` [Example 18, ((2S,8R)-2-(Aminomethyl)-5-fluoro-7,8-dihydro-2H-1,6,9-trioxa-9a-borabenzo[cd]azulen-8-yl)methanol hydrochloride], the “antibacterial activity (potency) in words” value (“antibacterial activity” below) [7] was “reduced activity”.

`Cl.NCC1OB2OC(CO)COc3cccc1c32` (stereo not drawn) [Example 7] showed an MIC [5] of 4000 µg/mL, an MIC [1] of 2 to 4 µg/mL and an MIC [4] of 4000 µg/mL.

For `Cl.NCC1OB2O[C@H](CO)COc3cccc1c32` (stereo partly drawn) [Example 1, ((8R)-2-(Aminomethyl)-7,8-dihydro-2H-1,6,9-trioxa-9a-borabenzo[cd]azulen-8-yl)methanol hydrochloride], the MIC [1] was 2 to 4 µg/mL, the “superiority in the bacterial reduction over Example 10” value ([2]; side-by-side test) was 79 fold and the CFU reduction [2] was “about 3.2 log”. For the same compound, the “CFU reduction, fold” value [2] was “about 1584 fold”, the AUC [3, 8] was roughly 11500 ng·h/mL and the “improvement in exposure (AUC) over reference compound of Example 10” value ([3]; intravenous) was “more than 2 fold”.

With `Cl.NC[C@H]1OB(O)c2c(OCCCO)cccc21` [compound 25, (S)-3-(Aminomethyl)-7-(3-hydroxypropoxy)benzo[c][1,2]oxaborol-1(3H)-ol hydrochloride, reference compound] the “reduction in the bacterial colony-forming units (CFU)” value [2, 10] was “about 2.37 log”, the “reduction … (CFU), fold” value [2, 10] was “about 234 fold” and the AUC ([3]; iv, 10 mg/kg) was roughly 6240 ng·h/mL. For the same compound, the “antibacterial activity” value [7] was “active”.

For `Cl.NCC1OB2OC(CCO)COc3cccc1c32` (stereo not drawn) [Example 12, 2-(2-(Aminomethyl)-7,8-dihydro-2H-1,6,9-trioxa-9a-borabenzo[cd]azulen-8-yl)ethanol hydrochloride], the “reduced potency / loss of activity vs. P. aeruginosa compared to Example 7” value [1] was 4 fold and the “activity vs. A. baumannii in words” value ([4]; compared to Example 7) was “total loss of activity”.

With `Cl.NCC1OB2OCC(CO)Oc3cccc1c32` (stereo not drawn) [Example 11, (2-(Aminomethyl)-7,8-dihydro-2H-1,6,9-trioxa-9a-borabenzo[cd]azulen-7-yl)methanol hydrochloride] the “reduced potency / loss of activity vs. P. aeruginosa compared to Example 7” value [1] was 4 fold and the “reduced potency / loss of activity vs. A. baumannii compared to Example 7” value [4] was 4 fold.

In the case of `Cl.NCC1OB2OCCOc3cccc1c32` (stereo not drawn) [compound 24, (7,8-Dihydro-2H-1,6,9-trioxa-9a-borabenzo[cd]azulen-2-yl)methanamine hydrochloride, reference compound], the “reduction in the bacterial colony-forming units (CFU)” value [2, 9] is reported as “about 1.7 log”, the “reduction … (CFU), fold” value [2, 9] is reported as “about 50 fold” and the AUC [3, 11] is reported as roughly 5300 ng·h/mL.

For `Cl.NCC1OB(O)c2c(OCC(CO)CO)cccc21` (stereo not drawn) [compound 23, 2-(((3-(Aminomethyl)-1-hydroxy-1,3-dihydrobenzo[c][1,2]oxaborol-7-yl)oxy)methyl)propane-1,3-diol hydrochloride], the “antibacterial activity” value [7] was “essentially inactive”.

With `CC(O)C1COc2cccc3c2B(OC3CN)O1.Cl` (stereo not drawn) [Example 14, 1-(2-(Aminomethyl)-7,8-dihydro-2H-1,6,9-trioxa-9a-borabenzo[cd]azulen-8-yl)ethanol hydrochloride] the “reduced potency / loss of activity vs. A. baumannii compared to Example 7” value [4] was “about 4 fold”.

In the case of `Cl.NCC1OB(O)c2c(OCC[C@H](O)CO)cccc21` (stereo partly drawn) [compound 22, (2S)-4-((3-(Aminomethyl)-1-hydroxy-1,3-dihydrobenzo[c][1,2]oxaborol-7-yl)oxy)butane-1,2-diol hydrochloride], the “antibacterial activity” value [7] is reported as “essentially inactive”.
